# Assays:
# [1] = target: T1, Serine/threonine-protein kinase Nek9 (Homo sapiens) (UniProt Q8TD19); test: Inhibition of NEK9 (unknown origin) assessed as residual activity at 1000 nM by KINOMEscan analysis relative to control
# T1 sequence (whole entry): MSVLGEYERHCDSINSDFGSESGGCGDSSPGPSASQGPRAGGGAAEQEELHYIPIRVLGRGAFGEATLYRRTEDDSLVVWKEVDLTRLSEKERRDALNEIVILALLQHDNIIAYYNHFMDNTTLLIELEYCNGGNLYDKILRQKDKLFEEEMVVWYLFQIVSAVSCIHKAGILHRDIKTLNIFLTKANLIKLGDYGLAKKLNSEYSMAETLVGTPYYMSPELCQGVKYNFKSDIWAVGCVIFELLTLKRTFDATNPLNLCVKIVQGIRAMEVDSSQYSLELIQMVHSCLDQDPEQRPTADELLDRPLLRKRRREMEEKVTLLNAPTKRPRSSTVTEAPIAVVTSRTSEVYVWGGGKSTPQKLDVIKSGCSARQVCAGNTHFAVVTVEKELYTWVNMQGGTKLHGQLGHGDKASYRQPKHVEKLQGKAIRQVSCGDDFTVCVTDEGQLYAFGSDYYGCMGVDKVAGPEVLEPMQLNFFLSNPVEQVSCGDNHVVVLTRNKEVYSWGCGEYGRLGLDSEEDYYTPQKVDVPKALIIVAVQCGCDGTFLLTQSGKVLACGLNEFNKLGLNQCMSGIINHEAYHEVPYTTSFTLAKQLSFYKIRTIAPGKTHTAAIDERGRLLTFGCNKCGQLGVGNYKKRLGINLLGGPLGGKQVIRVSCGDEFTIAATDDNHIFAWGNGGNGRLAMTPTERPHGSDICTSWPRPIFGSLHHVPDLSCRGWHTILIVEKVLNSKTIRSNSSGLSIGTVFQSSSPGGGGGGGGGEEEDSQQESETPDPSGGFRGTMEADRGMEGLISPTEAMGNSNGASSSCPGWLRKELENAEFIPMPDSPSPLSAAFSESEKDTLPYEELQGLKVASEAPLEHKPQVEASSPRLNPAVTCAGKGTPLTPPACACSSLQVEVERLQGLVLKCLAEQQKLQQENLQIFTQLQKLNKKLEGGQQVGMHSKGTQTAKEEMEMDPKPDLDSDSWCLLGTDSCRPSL
# [2] = target: Tyrosine-protein kinase ABL2 (Homo sapiens) (UniProt P42684); test: Inhibition of ABL2 (unknown origin) assessed as residual activity at 1000 nM by KINOMEscan analysis relative to control
# [3] = target: Ephrin type-A receptor 7 (Homo sapiens) (UniProt Q15375); test: Inhibition of EPHA7 (unknown origin) assessed as residual activity at 1000 nM by KINOMEscan analysis relative to control
# [4] = test system: Phosphatidylinositol 4,5-bisphosphate 3-kinase catalytic subunit alpha isoform (Homo sapiens), P42336 [I800L]; test: Inhibition of PIK3CA I800L mutant (unknown origin) assessed as residual activity at 1000 nM by KINOMEscan analysis relative to control
# [5] = target: T2, Serine/threonine-protein kinase Nek3 (Homo sapiens) (UniProt P51956); test: Inhibition of NEK3 (unknown origin) assessed as residual activity at 1000 nM by KINOMEscan analysis relative to control
# T2 sequence (whole entry): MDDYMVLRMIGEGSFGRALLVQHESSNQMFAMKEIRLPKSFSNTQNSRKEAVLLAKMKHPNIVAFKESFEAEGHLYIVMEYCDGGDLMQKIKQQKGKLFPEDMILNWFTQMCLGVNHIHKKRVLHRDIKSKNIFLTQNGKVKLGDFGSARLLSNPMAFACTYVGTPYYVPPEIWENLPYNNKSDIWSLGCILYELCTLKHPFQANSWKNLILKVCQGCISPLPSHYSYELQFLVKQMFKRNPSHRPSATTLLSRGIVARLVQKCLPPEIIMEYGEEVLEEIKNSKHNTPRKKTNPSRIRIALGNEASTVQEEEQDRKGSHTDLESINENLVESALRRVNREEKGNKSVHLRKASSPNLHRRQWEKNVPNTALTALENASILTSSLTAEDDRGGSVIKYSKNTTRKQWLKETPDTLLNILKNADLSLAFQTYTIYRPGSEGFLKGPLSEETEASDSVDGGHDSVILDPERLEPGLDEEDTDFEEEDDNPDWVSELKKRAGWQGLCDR
# [6] = target: Serine/threonine-protein kinase MRCK beta (Homo sapiens) (UniProt Q9Y5S2); test: Inhibition of MRCKB (unknown origin) assessed as residual activity at 1000 nM by KINOMEscan analysis relative to control
# [7] = target: Casein kinase I isoform gamma-3 (Homo sapiens) (UniProt Q9Y6M4); test: Inhibition of CSNK1G3 (unknown origin) assessed as residual activity at 1000 nM by KINOMEscan analysis relative to control
# [8] = target: Dual specificity mitogen-activated protein kinase kinase 2 (Homo sapiens) (UniProt P36507); test: Inhibition of MEK2 (unknown origin) assessed as residual activity at 1000 nM by KINOMEscan analysis relative to control
# [9] = test system: Phosphatidylinositol 4,5-bisphosphate 3-kinase catalytic subunit alpha isoform (Homo sapiens), P42336 [Q546K]; test: Inhibition of PIK3CA Q546K mutant (unknown origin) assessed as residual activity at 1000 nM by KINOMEscan analysis relative to control
# [10] = target: Casein kinase II subunit alpha' (Homo sapiens) (UniProt P19784); test: Inhibition of CSNK2A2 (unknown origin) assessed as residual activity at 1000 nM by KINOMEscan analysis relative to control
# [11] = target: T3, Phosphorylase b kinase gamma catalytic chain, liver/testis isoform (Homo sapiens) (UniProt P15735); test: Inhibition of PHKG2 (unknown origin) assessed as residual activity at 1000 nM by KINOMEscan analysis relative to control
# T3 sequence (whole entry): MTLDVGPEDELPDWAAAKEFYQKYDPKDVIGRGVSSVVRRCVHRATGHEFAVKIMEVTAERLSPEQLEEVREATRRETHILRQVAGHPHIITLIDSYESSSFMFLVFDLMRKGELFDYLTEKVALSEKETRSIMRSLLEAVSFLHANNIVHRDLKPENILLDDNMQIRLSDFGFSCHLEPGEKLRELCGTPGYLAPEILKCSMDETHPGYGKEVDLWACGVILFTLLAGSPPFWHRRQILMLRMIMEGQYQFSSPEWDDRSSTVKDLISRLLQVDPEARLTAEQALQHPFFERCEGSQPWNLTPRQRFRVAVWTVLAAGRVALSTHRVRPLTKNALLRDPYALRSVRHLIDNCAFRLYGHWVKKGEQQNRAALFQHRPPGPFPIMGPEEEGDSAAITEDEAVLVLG
# [12] = target: Cyclin-dependent kinase-like 1 (Homo sapiens) (UniProt Q00532); test: Inhibition of CDKL1 (unknown origin) assessed as residual activity at 1000 nM by KINOMEscan analysis relative to control
# [13] = target: Mitogen-activated protein kinase 6 (Homo sapiens) (UniProt Q16659); test: Inhibition of ERK3 (unknown origin) assessed as residual activity at 1000 nM by KINOMEscan analysis relative to control
# Chain of Mitogen-activated protein kinase 6 (Homo sapiens) (Q16659 whole entry): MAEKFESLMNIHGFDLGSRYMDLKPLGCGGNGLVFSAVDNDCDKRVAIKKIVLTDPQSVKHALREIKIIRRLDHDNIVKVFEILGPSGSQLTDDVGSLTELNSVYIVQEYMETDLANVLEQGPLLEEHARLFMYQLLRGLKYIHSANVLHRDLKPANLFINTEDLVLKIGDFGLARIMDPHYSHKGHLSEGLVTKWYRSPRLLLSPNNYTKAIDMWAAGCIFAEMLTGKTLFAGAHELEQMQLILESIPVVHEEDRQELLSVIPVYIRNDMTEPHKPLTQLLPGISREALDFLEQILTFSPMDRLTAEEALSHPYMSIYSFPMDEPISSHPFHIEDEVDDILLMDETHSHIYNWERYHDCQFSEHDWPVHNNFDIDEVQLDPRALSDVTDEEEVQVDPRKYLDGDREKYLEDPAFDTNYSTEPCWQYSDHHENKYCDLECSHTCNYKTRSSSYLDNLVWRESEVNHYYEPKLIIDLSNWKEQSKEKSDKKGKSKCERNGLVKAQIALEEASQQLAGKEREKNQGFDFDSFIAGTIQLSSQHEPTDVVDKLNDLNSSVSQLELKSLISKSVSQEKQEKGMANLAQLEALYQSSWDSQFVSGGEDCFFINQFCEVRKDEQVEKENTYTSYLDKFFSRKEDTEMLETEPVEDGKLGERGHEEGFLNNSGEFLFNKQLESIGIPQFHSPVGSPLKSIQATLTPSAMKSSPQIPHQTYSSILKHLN
# Chain of Casein kinase I isoform gamma-3 (Homo sapiens) (Q9Y6M4 whole entry, looked up, canonical isoform): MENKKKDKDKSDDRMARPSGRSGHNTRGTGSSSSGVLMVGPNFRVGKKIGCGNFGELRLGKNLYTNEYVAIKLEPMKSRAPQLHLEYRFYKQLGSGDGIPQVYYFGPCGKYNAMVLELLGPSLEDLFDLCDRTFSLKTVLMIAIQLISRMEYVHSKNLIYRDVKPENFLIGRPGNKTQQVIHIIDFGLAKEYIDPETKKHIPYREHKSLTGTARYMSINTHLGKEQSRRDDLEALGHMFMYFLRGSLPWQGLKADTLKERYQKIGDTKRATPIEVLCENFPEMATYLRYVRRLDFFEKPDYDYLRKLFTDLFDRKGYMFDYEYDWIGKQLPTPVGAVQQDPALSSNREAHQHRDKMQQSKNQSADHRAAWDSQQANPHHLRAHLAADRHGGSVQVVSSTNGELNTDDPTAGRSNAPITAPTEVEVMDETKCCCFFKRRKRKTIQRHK
# Chain of Phosphatidylinositol 4,5-bisphosphate 3-kinase catalytic subunit alpha isoform (Homo sapiens), P42336 [I800L] (P42336 whole entry I800L, canonical isoform): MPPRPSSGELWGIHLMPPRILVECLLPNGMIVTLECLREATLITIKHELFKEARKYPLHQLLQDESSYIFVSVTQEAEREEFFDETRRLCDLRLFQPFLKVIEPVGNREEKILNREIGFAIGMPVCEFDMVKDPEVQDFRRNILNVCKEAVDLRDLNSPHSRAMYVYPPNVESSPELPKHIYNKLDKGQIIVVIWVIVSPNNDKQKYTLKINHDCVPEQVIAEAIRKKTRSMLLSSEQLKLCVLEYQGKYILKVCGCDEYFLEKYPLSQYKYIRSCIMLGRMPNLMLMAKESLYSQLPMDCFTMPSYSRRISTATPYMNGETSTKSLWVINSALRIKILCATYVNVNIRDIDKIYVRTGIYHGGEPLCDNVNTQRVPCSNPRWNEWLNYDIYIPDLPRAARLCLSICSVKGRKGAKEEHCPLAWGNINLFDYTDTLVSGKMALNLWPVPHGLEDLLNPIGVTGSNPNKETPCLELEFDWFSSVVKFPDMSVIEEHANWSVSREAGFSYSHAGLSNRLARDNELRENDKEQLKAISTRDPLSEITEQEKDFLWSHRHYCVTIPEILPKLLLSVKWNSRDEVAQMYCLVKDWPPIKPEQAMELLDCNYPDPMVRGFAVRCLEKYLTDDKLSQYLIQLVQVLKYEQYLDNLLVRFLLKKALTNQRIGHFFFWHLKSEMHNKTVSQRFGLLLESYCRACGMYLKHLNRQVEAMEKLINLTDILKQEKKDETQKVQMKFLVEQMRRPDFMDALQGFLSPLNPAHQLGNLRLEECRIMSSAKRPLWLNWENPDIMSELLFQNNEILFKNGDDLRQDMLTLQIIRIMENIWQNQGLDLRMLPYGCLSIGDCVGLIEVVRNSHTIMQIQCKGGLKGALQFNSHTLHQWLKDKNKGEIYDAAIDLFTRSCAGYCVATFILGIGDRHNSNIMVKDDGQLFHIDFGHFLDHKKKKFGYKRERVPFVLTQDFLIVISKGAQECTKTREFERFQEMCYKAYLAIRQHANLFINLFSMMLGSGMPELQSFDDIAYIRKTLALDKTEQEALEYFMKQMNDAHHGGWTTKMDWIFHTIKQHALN
# Chain of Ephrin type-A receptor 7 (Homo sapiens) (Q15375 28-998 limits assumed): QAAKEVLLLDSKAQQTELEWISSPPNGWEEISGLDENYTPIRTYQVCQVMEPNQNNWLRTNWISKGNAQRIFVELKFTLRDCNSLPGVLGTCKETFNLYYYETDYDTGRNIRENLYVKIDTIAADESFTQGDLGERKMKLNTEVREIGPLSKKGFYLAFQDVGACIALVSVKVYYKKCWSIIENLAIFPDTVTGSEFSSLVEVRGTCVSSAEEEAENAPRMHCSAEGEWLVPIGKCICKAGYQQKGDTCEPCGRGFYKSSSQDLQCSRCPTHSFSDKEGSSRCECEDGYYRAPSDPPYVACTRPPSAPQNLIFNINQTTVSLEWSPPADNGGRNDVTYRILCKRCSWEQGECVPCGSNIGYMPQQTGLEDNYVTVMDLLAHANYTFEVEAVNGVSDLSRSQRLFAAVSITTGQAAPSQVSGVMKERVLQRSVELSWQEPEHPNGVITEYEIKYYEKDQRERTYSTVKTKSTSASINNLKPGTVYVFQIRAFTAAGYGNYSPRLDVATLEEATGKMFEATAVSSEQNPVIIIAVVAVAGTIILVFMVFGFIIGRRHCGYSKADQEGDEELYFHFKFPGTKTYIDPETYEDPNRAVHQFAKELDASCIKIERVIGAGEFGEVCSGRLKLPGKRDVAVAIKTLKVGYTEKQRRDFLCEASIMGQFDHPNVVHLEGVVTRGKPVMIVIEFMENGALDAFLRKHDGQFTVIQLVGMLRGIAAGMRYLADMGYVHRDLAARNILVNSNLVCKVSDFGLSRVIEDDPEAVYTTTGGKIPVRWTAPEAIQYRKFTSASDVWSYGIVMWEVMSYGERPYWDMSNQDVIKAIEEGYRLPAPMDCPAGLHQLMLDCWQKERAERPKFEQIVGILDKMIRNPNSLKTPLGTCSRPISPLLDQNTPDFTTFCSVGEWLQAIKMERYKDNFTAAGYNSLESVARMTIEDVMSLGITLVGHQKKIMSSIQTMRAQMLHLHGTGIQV
# Chain of Casein kinase II subunit alpha' (Homo sapiens) (P19784 whole entry, looked up, canonical isoform): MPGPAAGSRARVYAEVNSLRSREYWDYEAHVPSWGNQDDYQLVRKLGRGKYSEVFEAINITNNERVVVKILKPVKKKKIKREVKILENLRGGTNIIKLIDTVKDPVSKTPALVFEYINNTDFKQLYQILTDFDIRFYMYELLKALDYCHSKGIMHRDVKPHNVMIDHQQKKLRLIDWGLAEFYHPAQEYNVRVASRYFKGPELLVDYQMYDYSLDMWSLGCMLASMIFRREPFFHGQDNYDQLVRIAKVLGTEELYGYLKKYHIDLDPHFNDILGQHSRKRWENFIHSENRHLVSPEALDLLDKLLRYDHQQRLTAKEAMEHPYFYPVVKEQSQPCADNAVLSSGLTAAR
# Chain of Phosphatidylinositol 4,5-bisphosphate 3-kinase catalytic subunit alpha isoform (Homo sapiens), P42336 [Q546K] (P42336 whole entry Q546K, canonical isoform): as the sequence (P42336 whole entry I800L, canonical isoform) above, with Q546K, L800I counted along it
# Chain of Tyrosine-protein kinase ABL2 (Homo sapiens) (P42684 whole entry): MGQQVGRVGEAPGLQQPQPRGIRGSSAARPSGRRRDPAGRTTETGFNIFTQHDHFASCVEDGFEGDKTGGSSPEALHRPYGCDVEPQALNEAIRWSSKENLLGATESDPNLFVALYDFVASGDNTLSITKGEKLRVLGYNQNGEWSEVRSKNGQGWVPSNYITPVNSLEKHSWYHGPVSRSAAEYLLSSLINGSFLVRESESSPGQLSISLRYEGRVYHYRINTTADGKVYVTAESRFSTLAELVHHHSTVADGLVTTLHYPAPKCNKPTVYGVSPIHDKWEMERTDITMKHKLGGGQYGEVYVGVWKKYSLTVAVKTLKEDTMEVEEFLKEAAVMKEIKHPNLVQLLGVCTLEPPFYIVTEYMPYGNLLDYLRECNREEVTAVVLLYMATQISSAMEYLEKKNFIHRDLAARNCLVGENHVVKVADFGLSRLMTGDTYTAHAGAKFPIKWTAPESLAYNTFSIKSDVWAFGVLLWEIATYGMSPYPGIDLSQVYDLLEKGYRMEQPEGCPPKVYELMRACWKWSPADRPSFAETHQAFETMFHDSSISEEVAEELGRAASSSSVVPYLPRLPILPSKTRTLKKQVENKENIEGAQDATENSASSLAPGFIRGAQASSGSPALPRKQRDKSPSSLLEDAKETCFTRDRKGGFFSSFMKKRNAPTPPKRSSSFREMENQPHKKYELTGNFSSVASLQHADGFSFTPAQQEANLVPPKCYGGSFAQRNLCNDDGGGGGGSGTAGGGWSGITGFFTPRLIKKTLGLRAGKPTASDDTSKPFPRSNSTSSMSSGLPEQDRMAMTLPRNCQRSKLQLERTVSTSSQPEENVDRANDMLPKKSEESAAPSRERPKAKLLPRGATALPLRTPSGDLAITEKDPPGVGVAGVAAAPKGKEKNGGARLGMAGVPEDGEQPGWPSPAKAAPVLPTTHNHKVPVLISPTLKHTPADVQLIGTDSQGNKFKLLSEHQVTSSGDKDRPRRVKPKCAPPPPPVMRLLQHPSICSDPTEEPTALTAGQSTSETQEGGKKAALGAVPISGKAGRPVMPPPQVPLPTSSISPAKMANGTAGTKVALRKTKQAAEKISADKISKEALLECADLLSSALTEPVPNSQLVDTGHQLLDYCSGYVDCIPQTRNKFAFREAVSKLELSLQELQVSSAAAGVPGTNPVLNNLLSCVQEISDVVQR
structure (smiles),measurement,setting,value
COc1cc2ncnc(N[C@H](C)c3cccc4ccccc34)c2cc1OC,Activity,[1],100%
same,Activity,[2],100%
same,Activity,[3],88%
same,Activity,[4],96%
same,Activity,[5],93%
same,Activity,[6],100%
same,Activity,[7],100%
same,Activity,[8],91%
same,Activity,[9],83%
same,Activity,[10],90%
same,Activity,[11],100%
same,Activity,[12],89%
same,Activity,[13],94%
COc1cc2nc(C)nc(N[C@H](C)c3cccc(-c4cn[nH]c4)c3)c2cc1OC,Activity,[1],97%
same,Activity,[2],73%
same,Activity,[3],100%
same,Activity,[4],63%
same,Activity,[5],42%
same,Activity,[6],56%
same,Activity,[7],80%
same,Activity,[8],63%
same,Activity,[9],87%
same,Activity,[10],100%
same,Activity,[11],59%
same,Activity,[12],73%
same,Activity,[13],100%
